From US20220365085A1, “B[…], THE USE OF B[…], SENSORS […] WITH THE SAID B[…] AND THE DETECTION METHOD OF SARS-COV-2 VIRUS” (SENSDX SPÓLKA AKCYJNA, priority 2019, published 2022)
Numbered stars: 1 amine (or outer) side, 2 acyl side, 3 side chain; on linkers, the order of the positions; unused ones are H or OH. Square brackets hold non-standard residues; d marks the D form. Peptide text beside a SMILES is read from it. * marks the point of attachment. ξ: configuration not given here. X1 = O=C([C@@H](N[*:1])c1cnc[nH]1)[*:2]; Ile(3ξ) = CCC(C)[C@H](N)C(=O)O; Lauroyl = CCCCCCCCCCCC(=O)*

Test system: SARS-CoV-2 virus

CCCCCCCCCCCC(=O)N[C@H](C(=O)N[C@H](C(=O)N[C@@H](CO)C(=O)N[C@@H](CC(N)=O)C(=O)N[C@@H](Cc1c[nH]cn1)C(=O)N[C@@H](CO)C(=O)N[C@@H](Cc1c[nH]cn1)C(=O)N[C@@H](Cc1c[nH]cn1)C(=O)N[C@@H](Cc1c[nH]cn1)C(=O)N[C@@H](CC(=O)O)C(=O)N[C@H](C(=O)N[C@@H](CC(C)C)C(N)=O)C(C)CC)C(C)CC)c1cnc[nH]1 (stereo partly drawn) [11-KOD1, 11-Mrcpt-HISNHSHHHDIL-NH2] (Lauroyl-[X1][Ile(3ξ)]SNHSHHHD[Ile(3ξ)]L-NH2)
result of the measurement on a negative swab (impedance changes on the sensor): no impedance changes | result of the measurement on a positive swab (presence of the virus in the sample) ([…], MOBI SensDx reader, positive when Δ>10%): positive result (+)
